Patent publication EP4603105A1, “PHARMACEUTICAL COMPOSITION CONTAINING CYCLIC COMPOUND HAVING SELECTIVE KRAS INHIBITORY EFFECT AGAINST HRAS AND NRAS” (CHUGAI SEIYAKU KABUSHIKI KAISHA, priority 2022, dated 2024)
Where a SMILES comes first, the peptide text is derived from it. Bridges are numbered along the chain shown (N, C = ends). [ ]: non-standard residue; d: D form. hPhe(3-Cl-4-CF3) = N[C@@H](CCc1ccc(C(F)(F)F)c(Cl)c1)C(=O)O; NPrPhe(4-CF3) = CCCN[C@@H](Cc1ccc(C(F)(F)F)cc1)C(=O)O; NMeGly(cPent) = CN[C@H](C(=O)O)C1CCCC1; Pro(4,4-F2) = O=C(O)[C@@H]1CC(F)(F)CN1; NMeD = CN[C@@H](CC(=O)O)C(=O)O; NMeL = CN[C@@H](CC(C)C)C(=O)O; Ac4c = NC1(C(=O)O)CCC1; NEtG = CCNCC(=O)O; Sar = CNCC(=O)O

What was measured:
[1] = tested on: human lung cancer strain NCI-H441; format: cell-based
Procedure, shortened: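 Step one: dispense the test compound in serial DMSO dilutions. Step three: add the reagent and measure […].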

HRAS wild-type protein = HRAS wild-type protein (Homo sapiens, UniProt P01112); assay: Binding to HRAS by surface plasmon resonance (SPR), KD and KD ratio to KRAS
Chain of HRAS wild-type protein (P01112 whole entry): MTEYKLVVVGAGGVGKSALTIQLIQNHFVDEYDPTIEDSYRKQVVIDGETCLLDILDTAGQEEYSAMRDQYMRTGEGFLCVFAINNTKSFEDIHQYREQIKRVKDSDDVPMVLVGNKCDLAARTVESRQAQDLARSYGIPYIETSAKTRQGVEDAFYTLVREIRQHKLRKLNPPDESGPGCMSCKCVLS
Procedure, shortened: (§1)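 Biotinylated GDP-bound RAS was captured at about 100–300 RU. Running buffer: HBS pH 7.4, 10 mM MgCl2, 10 µM GDP, 1 mM DTT, 0.01% Tween 20, 4% DMSO.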

[2] = target: GDP-bound NRAS wild-type protein (Homo sapiens, UniProt P01111); assay: Binding to NRAS by surface plasmon resonance (SPR), KD and KD ratio to KRAS
Chain of GDP-bound NRAS wild-type protein (P01111 whole entry): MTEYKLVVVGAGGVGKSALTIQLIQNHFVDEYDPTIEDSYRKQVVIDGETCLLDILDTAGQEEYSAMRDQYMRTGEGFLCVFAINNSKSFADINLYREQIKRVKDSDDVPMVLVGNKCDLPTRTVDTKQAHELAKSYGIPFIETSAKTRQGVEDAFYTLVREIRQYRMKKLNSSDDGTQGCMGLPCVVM
Procedure, shortened: as §1

[3] = ratio of KD value for HRAS wild-type protein to KD value for KRAS (SPR)
[4] = ratio of KD value for GDP-bound NRAS wild-type protein to KD value for KRAS (SPR)
[5] = ratio of the KD value with respect to HRAS wild-type protein to the KD value with respect to KRAS
[6] = ratio of the KD value with respect to GDP-bound NRAS wild-type protein to the KD value with respect to KRAS
[7] = ratio of KD for HRAS wild-type protein to KD for KRAS
[8] = ratio of KD for GDP-bound NRAS wild-type protein to KD for KRAS

Compound	IC50 [1] [nM]	HRAS /KRAS (HRAS wild-type protein; [3])	NRAS /KRAS [2, 4]	HRAS /KRAS (HRAS wild-type protein; [5])	NRAS /KRAS [2, 6]	HRAS /KRAS (HRAS wild-type protein; [7])	NRAS /KRAS [2, 8]
CCCN(C)C(=O)[C@@H]1CC(=O)N(C)[C@@H](COC)C(=O)N[C@@H]([C@@H](C)CC)C(=O)N(C)CC(=O)N(C)[C@H]2C/C=C\CCN(C2=O)[C@@H](Cc2ccc(C(F)(F)F)cc2)C(=O)N(C)CC(=O)N[C@@H](CCc2cc(F)c(C(F)(F)F)c(F)c2)C(=O)N2CCC[C@H]2C(=O)NC2(CC(C)(C)C2)C(=O)N(C)[C@@H](C2CCCC2)C(=O)N1C [PP1729]	20.6	A (a compound having 10 or more and less than 20 is denoted as A)	AA (a compound having 20 or more is denoted as AA)	–	–	–	–
CCO[C@@H]1C[C@H]2C(=O)NC3(CC(C)(C)C3)C(=O)N(C)[C@@H](C3CCCC3)C(=O)N(C)[C@H](C(=O)N(C)C)CC(=O)N(C)[C@@H](CC(C)C)C(=O)N[C@@H]([C@@H](C)CC)C(=O)N(C)CC(=O)N(C)[C@H]3C/C=C\CCN(C3=O)[C@@H](Cc3ccc(C(F)(F)F)cc3)C(=O)N(C)CC(=O)N[C@@H](CCc3ccc(C(F)(F)F)c(Cl)c3)C(=O)N2C1 [PP1751]	2.2	A (a compound having 10 or more and less than 20 is denoted as A)	A (a compound having 10 or more and less than 20 is denoted as A)	–	–	–	–
CCO[C@@H]1C[C@H]2C(=O)NC3(CCC3)C(=O)N(C)[C@@H](C3CCCC3)C(=O)N(C)[C@H](C(=O)N3CCOCC3)CC(=O)N(C)[C@@H](CC3CCC3)C(=O)N[C@@H]([C@@H](C)CC)C(=O)N(C)CC(=O)N(C)[C@H]3CCCCN(C3=O)[C@@H](Cc3ccc(C(F)(F)F)cc3)C(=O)N(C)CC(=O)N[C@@H](CCc3cc(F)c(C(F)(F)F)c(F)c3)C(=O)N2C1 [PP0713]	4.2	–	–	B (a compound having 3 or more and less than 10 is denoted as B)	C (A compound having a KD ratio of 0.1 or more and less than 3 is denoted as C)	–	–
CCO[C@@H]1C[C@H]2C(=O)NC3(CCC3)C(=O)N(C)[C@@H](C3CCCC3)C(=O)N(C)[C@H](C(=O)N3CCOCC3)CC(=O)N(C)[C@@H](CC(C)C)C(=O)N[C@@H]([C@@H](C)CC)C(=O)N(C)CC(=O)N(C)[C@H]3C/C=C\CCN(C3=O)[C@@H](Cc3ccc(C(F)(F)F)cc3)C(=O)N(C)CC(=O)N[C@@H](CCc3ccc(C(F)(F)F)c(Cl)c3)C(=O)N2C1 [PP0825]	26.5	–	–	–	–	A (a compound having 10 or more and less than 20 is denoted as A)	A (a compound having 10 or more and less than 20 is denoted as A)
CCO[C@@H]1C[C@H]2C(=O)NC3(CCC3)C(=O)N(C)[C@@H](C3CCCC3)C(=O)N[C@H](C)CC(=O)N(C)[C@@H](CC)C(=O)N[C@@H]([C@@H](C)CC)C(=O)N(C)CC(=O)N(C)[C@H]3C/C=C\CCN(C3=O)[C@@H](Cc3ccc(C(F)(F)F)cc3)C(=O)N(C)CC(=O)N[C@@H](CCc3cc(F)c(C(F)(F)F)c(F)c3)C(=O)N2C1 [PP1098]	101	–	–	–	–	B (a compound having 3 or more and less than 10 is denoted as B)	B (a compound having 3 or more and less than 10 is denoted as B)

More lines, main results first:

IC50 [1] [nM]	Compound	HRAS /KRAS (HRAS wild-type protein; [3])	NRAS /KRAS [2, 4]	HRAS /KRAS (HRAS wild-type protein; [5])	NRAS /KRAS [2, 6]	HRAS /KRAS (HRAS wild-type protein; [7])	NRAS /KRAS [2, 8]
5.7	CCCC[C@H]1C(=O)N[C@@H]([C@@H](C)CC)C(=O)N(C)CC(=O)N(C)[C@H]2C/C=C\CCN(C2=O)[C@@H](Cc2ccc(C(F)(F)F)cc2)C(=O)N(C)CC(=O)N[C@@H](CCc2cc(F)c(C(F)(F)F)c(F)c2)C(=O)N2C[C@@H](C)C[C@H]2C(=O)NC2(CC(C)(C)C2)C(=O)N(C)[C@@H](C2CCCC2)C(=O)N(C)[C@H](C(=O)N(C)C)CC(=O)N1C [PP1661]	A (a compound having 10 or more and less than 20 is denoted as A)	A (a compound having 10 or more and less than 20 is denoted as A)	–	–	–	–
4.8	CCCN1C(=O)CN(C)C(=O)CN(CC)C(=O)[C@H]([C@@H](C)CC)NC(=O)[C@H](CC(C)C)N(C)C(=O)C[C@@H](C(=O)N(C)C)N(C)C(=O)[C@H](C2CCCC2)N(C)C(=O)C2(CCC2)NC(=O)[C@@H]2CC(F)(F)CN2C(=O)[C@H](CCc2ccc(C(F)(F)F)c(Cl)c2)NC(=O)CN(C)C(=O)[C@@H]1Cc1ccc(C(F)(F)F)cc1 [PP0426] ([NMeL]I[NEtG][Sar][NPrPhe(4-CF3)][Sar][hPhe(3-Cl-4-CF3)][Pro(4,4-F2)][Ac4c][NMeGly(cPent)][NMeD]-NMe2; lactam N-11)	–	–	C (A compound having a KD ratio of 0.1 or more and less than 3 is denoted as C)	C (A compound having a KD ratio of 0.1 or more and less than 3 is denoted as C)	–	–
